Experimental findings from patent US9150632B2 (Indiana University Research and Technology Corporation, priority 2009, dated 2015) are described below.

SMILES strings stand for the structures. Non-standard residues stand in square brackets, D forms with d. Residues, ends and D or L forms follow the SMILES beside them. Dab = NCC[C@H](N)C(=O)O; Aib = CC(C)(N)C(=O)O

T1 sequence (P47871 26-477): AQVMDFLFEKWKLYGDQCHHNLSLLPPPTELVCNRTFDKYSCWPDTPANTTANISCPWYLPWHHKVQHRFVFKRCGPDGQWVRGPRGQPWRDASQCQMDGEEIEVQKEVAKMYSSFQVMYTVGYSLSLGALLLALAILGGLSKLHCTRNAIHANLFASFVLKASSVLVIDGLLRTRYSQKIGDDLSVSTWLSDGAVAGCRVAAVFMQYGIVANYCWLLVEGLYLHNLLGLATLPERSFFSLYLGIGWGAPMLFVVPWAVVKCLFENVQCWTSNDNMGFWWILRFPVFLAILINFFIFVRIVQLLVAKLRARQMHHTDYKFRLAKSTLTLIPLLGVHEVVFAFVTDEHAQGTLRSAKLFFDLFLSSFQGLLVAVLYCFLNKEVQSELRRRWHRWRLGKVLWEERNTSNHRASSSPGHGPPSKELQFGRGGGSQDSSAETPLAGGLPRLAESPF

One test addresses T1, glucagon receptor (Homo sapiens, UniProt P47871).
T1 construct: expressed in transfected cells; host or cells: HEK293
As to the kind of experiment: Functional assay-cAMP synthesis, luciferase reporter in HEK293 cells, glucagon receptor. The class given is cell-based. More on the design: % activity: concentration or dose not given beside the values. The following applies: Table 26, glucagon receptor. (In a reporter assay the amount or activity of a reporter protein is the signal.)
`CCCC[C@H](NC(=O)[C@H](CC(C)C)NC(=O)[C@H](Cc1c[nH]c2ccccc12)NC(=O)[C@H](C)NC(=O)[C@@H](NC(=O)[C@H](Cc1ccccc1)NC(=O)[C@H](CCC(=O)O)NC(=O)[C@H](C)NC(=O)[C@H](C)NC(=O)[C@H](CCCNC(=N)N)NC(=O)[C@H](CCCNC(=N)N)NC(=O)[C@@H](NC(=O)[C@H](CC(=O)O)NC(=O)[C@H](CC(C)C)NC(=O)[C@H](Cc1ccc(O)cc1)NC(=O)[C@H](CCCCN)NC(=O)[C@H](CO)NC(=O)[C@H](Cc1ccc(O)cc1)NC(=O)[C@H](CC(=O)O)NC(=O)[C@H](CO)NC(=O)[C@@H](NC(=O)[C@H](Cc1ccccc1)NC(=O)[C@@H](NC(=O)CNC(=O)[C@H](CCCNC(C)=O)NC(=O)[C@H](CO)NC(=O)[C@@H](N)Cc1c[nH]cn1)[C@@H](C)O)[C@@H](C)O)[C@@H](C)O)C(C)C)C(=O)N[C@@H](CC(=O)O)C(=O)N[C@@H](CCC(=O)O)C(=O)O` [SEQ ID NO: 599]: the “% activity” value is reported as 7%.

As for `CCCC[C@H](NC(=O)[C@H](CC(C)C)NC(=O)[C@H](Cc1c[nH]c2ccccc12)NC(=O)[C@H](C)NC(=O)[C@@H](NC(=O)[C@H](Cc1ccccc1)NC(=O)[C@H](CCC(=O)O)NC(=O)[C@H](C)NC(=O)[C@H](C)NC(=O)[C@H](CCCNC(=N)N)NC(=O)[C@H](CCCNC(=N)N)NC(=O)[C@@H](NC(=O)[C@H](CC(=O)O)NC(=O)[C@H](CC(C)C)NC(=O)[C@H](Cc1ccc(O)cc1)NC(=O)[C@H](CCCCN)NC(=O)[C@H](CO)NC(=O)[C@H](Cc1ccc(O)cc1)NC(=O)[C@H](CC(=O)O)NC(=O)[C@H](CO)NC(=O)[C@@H](NC(=O)[C@H](Cc1ccccc1)NC(=O)[C@@H](NC(=O)CNC(=O)[C@H](CCNC(C)=O)NC(=O)[C@H](CO)NC(=O)[C@@H](N)Cc1c[nH]cn1)[C@@H](C)O)[C@@H](C)O)[C@@H](C)O)C(C)C)C(=O)N[C@@H](CC(=O)O)C(=O)N[C@@H](CCC(=O)O)C(=O)O` [SEQ ID NO: 595], the “% activity” value is 19%.

Turning to `CSCC[C@H](NC(=O)[C@H](CC(C)C)NC(=O)[C@H](Cc1c[nH]c2ccccc12)NC(=O)[C@H](C)NC(=O)[C@@H](NC(=O)[C@H](Cc1ccccc1)NC(=O)[C@H](CC(=O)O)NC(=O)[C@H](C)NC(=O)[C@H](C)NC(=O)[C@H](CCCNC(=N)N)NC(=O)[C@H](CCCNC(=N)N)NC(=O)C(C)(C)NC(=O)[C@H](CC(=O)O)NC(=O)[C@H](CC(C)C)NC(=O)[C@H](Cc1ccc(O)cc1)NC(=O)[C@H](CCCCN)NC(=O)[C@H](CO)NC(=O)[C@H](Cc1ccc(O)cc1)NC(=O)[C@H](CC(=O)O)NC(=O)[C@H](CO)NC(=O)[C@@H](NC(=O)[C@H](Cc1ccccc1)NC(=O)[C@@H](NC(=O)CNC(=O)[C@H](CCC(N)=O)NC(=O)[C@H](CO)NC(=O)[C@@H](N)Cc1c[nH]cn1)[C@@H](C)O)[C@@H](C)O)C(C)C)C(=O)N[C@@H](CC(=O)O)C(=O)N[C@@H](CCC(=O)O)C(=O)O` [SEQ ID NO: 600], the “% activity” value is reported as 15%.

Turning to `CCCC[C@H](NC(=O)[C@H](CC(C)C)NC(=O)[C@H](Cc1c[nH]c2ccccc12)NC(=O)[C@H](C)NC(=O)[C@@H](NC(=O)[C@H](Cc1ccccc1)NC(=O)[C@H](CCC(=O)O)NC(=O)[C@H](C)NC(=O)[C@H](C)NC(=O)[C@H](CCCNC(=N)N)NC(=O)[C@H](CCCNC(=N)N)NC(=O)[C@@H](NC(=O)[C@H](CC(=O)O)NC(=O)[C@H](CC(C)C)NC(=O)[C@H](Cc1ccc(O)cc1)NC(=O)[C@H](CCCCN)NC(=O)[C@H](CO)NC(=O)[C@H](Cc1ccc(O)cc1)NC(=O)[C@H](CC(=O)O)NC(=O)[C@H](CO)NC(=O)[C@@H](NC(=O)[C@H](Cc1ccccc1)NC(=O)[C@@H](NC(=O)CNC(=O)[C@H](CNC(N)=O)NC(=O)[C@H](CO)NC(=O)[C@@H](N)Cc1c[nH]cn1)[C@@H](C)O)[C@@H](C)O)[C@@H](C)O)C(C)C)C(=O)N[C@@H](CC(=O)O)C(=O)N[C@@H](CCC(=O)O)C(=O)O` [SEQ ID NO: 596], the “% activity” value is 13%.

Take `CCCC[C@H](NC(=O)[C@H](CC(C)C)NC(=O)[C@H](Cc1c[nH]c2ccccc12)NC(=O)[C@H](C)NC(=O)[C@@H](NC(=O)[C@H](Cc1ccccc1)NC(=O)[C@H](CCC(=O)O)NC(=O)[C@H](C)NC(=O)[C@H](C)NC(=O)[C@H](CCCNC(=N)N)NC(=O)[C@H](CCCNC(=N)N)NC(=O)[C@@H](NC(=O)[C@H](CC(=O)O)NC(=O)[C@H](CC(C)C)NC(=O)[C@H](Cc1ccc(O)cc1)NC(=O)[C@H](CCCCN)NC(=O)[C@H](CO)NC(=O)[C@H](Cc1ccc(O)cc1)NC(=O)[C@H](CC(=O)O)NC(=O)[C@H](CO)NC(=O)[C@@H](NC(=O)[C@H](Cc1ccccc1)NC(=O)[C@@H](NC(=O)CNC(=O)[C@H](CSCNC(C)=O)NC(=O)[C@H](CO)NC(=O)[C@@H](N)Cc1c[nH]cn1)[C@@H](C)O)[C@@H](C)O)[C@@H](C)O)C(C)C)C(=O)N[C@@H](CC(=O)O)C(=O)N[C@@H](CCC(=O)O)C(=O)O` [SEQ ID NO: 594]: the “% activity” value was 33%.

On to `CCCC[C@H](NC(=O)[C@H](CC(C)C)NC(=O)[C@H](Cc1c[nH]c2ccccc12)NC(=O)[C@H](C)NC(=O)[C@@H](NC(=O)[C@H](Cc1ccccc1)NC(=O)[C@H](CCC(=O)O)NC(=O)[C@H](C)NC(=O)[C@H](C)NC(=O)[C@H](CCCNC(=N)N)NC(=O)[C@H](CCCNC(=N)N)NC(=O)[C@@H](NC(=O)[C@H](CC(=O)O)NC(=O)[C@H](CC(C)C)NC(=O)[C@H](Cc1ccc(O)cc1)NC(=O)[C@H](CCCCN)NC(=O)[C@H](CO)NC(=O)[C@H](Cc1ccc(O)cc1)NC(=O)[C@H](CC(=O)O)NC(=O)[C@H](CO)NC(=O)[C@@H](NC(=O)[C@H](Cc1ccccc1)NC(=O)[C@@H](NC(=O)CNC(=O)[C@H](CC[S+](C)[O-])NC(=O)[C@H](CO)NC(=O)[C@@H](N)Cc1c[nH]cn1)[C@@H](C)O)[C@@H](C)O)[C@@H](C)O)C(C)C)C(=O)N[C@@H](CC(=O)O)C(=O)N[C@@H](CCC(=O)O)C(=O)O` (stereo partly shown) [SEQ ID NO: 598], for which the “% activity” value amounted to 7%.

Regarding `CCCC[C@H](NC(=O)[C@H](CC(C)C)NC(=O)[C@H](Cc1c[nH]c2ccccc12)NC(=O)[C@H](C)NC(=O)[C@@H](NC(=O)[C@H](Cc1ccccc1)NC(=O)[C@H](CCC(=O)O)NC(=O)[C@H](C)NC(=O)[C@H](C)NC(=O)[C@H](CCCNC(=N)N)NC(=O)[C@H](CCCNC(=N)N)NC(=O)[C@@H](NC(=O)[C@H](CC(=O)O)NC(=O)[C@H](CC(C)C)NC(=O)[C@H](Cc1ccc(O)cc1)NC(=O)[C@H](CCCCN)NC(=O)[C@H](CO)NC(=O)[C@H](Cc1ccc(O)cc1)NC(=O)[C@H](CC(=O)O)NC(=O)[C@H](CO)NC(=O)[C@@H](NC(=O)[C@H](Cc1ccccc1)NC(=O)[C@@H](NC(=O)CNC(=O)[C@H](CCC(N)=O)NC(=O)[C@H](CO)NC(=O)[C@@H](N)Cc1c[nH]cn1)[C@@H](C)O)[C@@H](C)O)[C@@H](C)O)C(C)C)C(=O)N[C@@H](CC(=O)O)C(=O)N[C@@H](CCC(=O)O)C(=O)O` [SEQ ID NO: 593], the “% activity” value stood at 25%.

Still in this test, the particulars now being: Table 27, glucagon receptor.
For `CC(=O)NCC[C@H](NC(=O)[C@H](CO)NC(=O)[C@@H](N)Cc1c[nH]cn1)C(=O)NCC(=O)N[C@H](C(=O)N[C@@H](Cc1ccccc1)C(=O)N[C@H](C(=O)N[C@@H](CO)C(=O)N[C@@H](CC(=O)O)C(=O)N[C@@H](Cc1ccc(O)cc1)C(=O)N[C@@H](CO)C(=O)N[C@@H](CCCCN)C(=O)N[C@@H](Cc1ccc(O)cc1)C(=O)N[C@@H](CC(C)C)C(=O)N[C@@H](CC(=O)O)C(=O)NC(C)(C)C(=O)N[C@@H](CCCNC(=N)N)C(=O)N[C@@H](CCCNC(=N)N)C(=O)N[C@@H](C)C(=O)N[C@H](C(=O)N[C@@H](CC(=O)O)C(=O)N[C@@H](Cc1ccccc1)C(=O)N[C@H](C(=O)N[C@H](C(=O)N[C@@H](Cc1c[nH]c2ccccc12)C(=O)N[C@@H](CC(C)C)C(=O)N[C@@H](CC(C)C)C(=O)N[C@@H](CC(=O)O)C(=O)N[C@@H](CCC(=O)O)C(=O)O)[C@@H](C)O)C(C)C)[C@@H](C)O)[C@@H](C)O)[C@@H](C)O` (H-HS[Dab](Ac)GTFTSDYSKYLD[Aib]RRATDFVTWLLDE-OH; N-terminus and C-terminus assumed), the “% activity” value is reported as 46%.

Consider `CC(=O)NCC[C@H](NC(=O)[C@H](CO)NC(=O)[C@@H](N)Cc1c[nH]cn1)C(=O)NCC(=O)N[C@H](C(=O)N[C@@H](Cc1ccccc1)C(=O)N[C@H](C(=O)N[C@@H](CO)C(=O)N[C@@H](CC(=O)O)C(=O)N[C@@H](Cc1ccc(O)cc1)C(=O)N[C@@H](CO)C(=O)N[C@@H](CCCCN)C(=O)N[C@@H](Cc1ccc(O)cc1)C(=O)N[C@@H](CC(C)C)C(=O)N[C@@H](CC(=O)O)C(=O)NC(C)(C)C(=O)N[C@@H](CCCNC(=N)N)C(=O)N[C@@H](CCCNC(=N)N)C(=O)N[C@@H](C)C(=O)N[C@@H](CO)C(=O)N[C@@H](CC(=O)O)C(=O)N[C@@H](Cc1ccccc1)C(=O)N[C@H](C(=O)N[C@@H](CO)C(=O)N[C@@H](Cc1c[nH]c2ccccc12)C(=O)N[C@@H](CC(C)C)C(=O)N[C@@H](CC(C)C)C(=O)N[C@@H](CC(=O)O)C(=O)N[C@@H](CCC(=O)O)C(=O)O)C(C)C)[C@@H](C)O)[C@@H](C)O` (H-HS[Dab](Ac)GTFTSDYSKYLD[Aib]RRASDFVSWLLDE-OH; N-terminus and C-terminus assumed), for which the “% activity” value came out at 54%.

On to `CC(=O)NCC[C@H](NC(=O)[C@H](CO)NC(=O)[C@@H](N)Cc1c[nH]cn1)C(=O)NCC(=O)N[C@H](C(=O)N[C@@H](Cc1ccccc1)C(=O)N[C@H](C(=O)N[C@@H](CO)C(=O)N[C@@H](CC(=O)O)C(=O)N[C@@H](Cc1ccc(O)cc1)C(=O)N[C@@H](CO)C(=O)N[C@@H](CCCCN)C(=O)N[C@@H](Cc1ccc(O)cc1)C(=O)N[C@@H](CC(C)C)C(=O)N[C@@H](CC(=O)O)C(=O)NC(C)(C)C(=O)N[C@@H](CCCNC(=N)N)C(=O)N[C@@H](CCCNC(=N)N)C(=O)N[C@@H](C)C(=O)N[C@@H](C)C(=O)N[C@@H](CC(=O)O)C(=O)N[C@@H](Cc1ccccc1)C(=O)N[C@H](C(=O)N[C@@H](C)C(=O)N[C@@H](Cc1c[nH]c2ccccc12)C(=O)N[C@@H](CC(C)C)C(=O)N[C@@H](CC(C)C)C(=O)N[C@@H](CC(=O)O)C(=O)N[C@H](C(=O)NCC(=O)N1CCC[C@H]1C(=O)N[C@@H](CO)C(=O)N[C@@H](CO)C(=O)NCC(=O)N[C@@H](C)C(=O)N1CCC[C@H]1C(=O)N1CCC[C@H]1C(=O)N1CCC[C@H]1C(=O)N[C@@H](CO)C(N)=O)[C@@H](C)O)C(C)C)[C@@H](C)O)[C@@H](C)O` (H-HS[Dab](Ac)GTFTSDYSKYLD[Aib]RRAADFVAWLLDTGPSSGAPPPS-NH2; N-terminus assumed), for which the “% activity” value stood at 113%.
